The target of one data set is CYP2D6 (Homo sapiens, UniProt P10635). The data set is described as follows: Metabolism by the enzyme CYP2D6. The data set is classed as in vitro ADME. The following applies: CYP2D6, after 30 minutes. On the procedure: To determine the metabolism the enzyme CYP2D6 was reacted with 2′-Chloro-3′,5′-dimethoxyphen-1′-yl-imino-2-imidazolidine. After 30 minutes 2.4% of the substance had been broken down by the enzyme.

The test system of the next data set is human urethra. Kind of data set: Maximum contraction in the human urethra compared with noradrenaline. As to conditions: as percentage of contraction compared with noradrenaline. From the text:
(§1) The maximum contraction in the isolated dog femoral artery and the human urethra are given as percentages of contraction compared with noradrenaline.

Data set [1] relates to isolated dog femoral artery. Kind of data set: Maximum contraction in the isolated dog femoral artery compared with noradrenaline. The following applies: as percentage of contraction compared with noradrenaline.
Description: as §1

Chain of CYP2D6 (P10635 whole entry, species assumed): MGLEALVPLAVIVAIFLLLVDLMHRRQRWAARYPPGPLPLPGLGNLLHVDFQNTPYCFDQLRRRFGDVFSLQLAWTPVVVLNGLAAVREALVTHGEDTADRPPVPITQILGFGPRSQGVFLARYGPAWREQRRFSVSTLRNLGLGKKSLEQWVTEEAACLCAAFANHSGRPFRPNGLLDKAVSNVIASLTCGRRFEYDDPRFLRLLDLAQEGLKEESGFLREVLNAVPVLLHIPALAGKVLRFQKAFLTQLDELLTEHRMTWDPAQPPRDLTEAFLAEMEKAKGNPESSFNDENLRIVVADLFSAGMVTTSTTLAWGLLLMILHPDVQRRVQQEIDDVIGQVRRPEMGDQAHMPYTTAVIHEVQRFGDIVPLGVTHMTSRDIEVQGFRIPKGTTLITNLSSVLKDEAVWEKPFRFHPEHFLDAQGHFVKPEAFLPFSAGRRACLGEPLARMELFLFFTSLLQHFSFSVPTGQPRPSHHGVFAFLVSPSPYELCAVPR

As for `COc1cc(N=C2NCCN2)c(Cl)c(OC)c1` [2′-chloro-3′,5′-dimethoxyphen-1′-yl-imino-2-imidazolidine], on CYP2D6, the “substance broken down by the enzyme” value is given as 2.4%. Moreover, in the data set on human urethra, the “activity on human urethra” value was found to be 66.2%. In data set [1], the “activity in the dog” value was 65%.
